PMC6979384, “Characterization of the plant homeodomain (PHD) reader family for their histone tail interactions” (Epigenetics & Chromatin, 2020)
Values belong to the substance of their own block, whether it stands above or below them. Where no end group is shown, it is not given here.

Tests used:
[1] = system: 123 annotated human PHD-containing domains; test: PHD finger domain microarray probed with biotinylated peptides (all domains); assay type: binding; settings: GST-PHD readers in duplicate on nitrocellulose slides, biotinylated peptide pre-labeled with streptavidin-Cy3
From the text: To define the histone binding preferences of the PHD finger proteome, we expressed and purified 123 annotated human PHD-containing domains as GST-tagged recombinant fusions from E. coli. The recombinant proteins consisted of either PHD fingers in isolation, or as tandem domains if a given PHD finger was located adjacent to another reader domain (e.g., one or more PHD fingers, Tudor, chromo and/or bromodomains) (Additional file 1: Table S1). These GST fusions were printed in duplicate on nitrocellulose-coated microarray slides and probed with biotinylated peptides that represented the N-termini of H3, H4, H2A or H2B (Fig. 1a and Additional file 2: Figure S1). As the majority of PHD readers thus far characterized are H3K4me0/3 readers, we included additional peptides (H3K4 as either mono-, di-, or trimethylated) to further determine any H3K4 methyl preference (Additional file 2: Figure S2 and Fig. 1b). As a control, we also probed these microarrays with an α-Tubulin peptide (a.a. 30–50) that would not be predicted to interact with PHD fingers (Additional file 2: Figure S1). […] We also cannot exclude the possibility that some PHD fingers might not be functionally active on the microarrays (perhaps due to misfolding or the lack of an important adjacent region).
The protein domain microarray was designed to include 123 GST-tagged PHD-domain containing recombinant proteins. Protein domain microarray development and probing was as previously. Briefly, recombinant proteins were synthesized and cloned into pGEX-4T-1 vector by Biomatik Corporation. These GST-PHD readers were subsequently expressed, purified, and spotted in duplicate onto nitrocellulose-coated glass slides (Oncyte Avid slides, Grace Bio-Labs) using a pin arrayer (Aushon 2470, Aushon). For probing, microarray slides were blocked with 3% milk, 3% bovine serum albumin, 0.1% Tween 20 in PBS. Biotinylated peptides were pre-labeled with streptavidin-Cy3 fluorophore (GE Healthcare) and incubated with the blocked array slides. Slides were then washed with PBST and allowed to air dry. Fluorescent interactions were visualized using a GenePix 4200A Microarray Scanner (Molecular Devices).

[2] = system: ING5; test: Histone peptide microarray; assay type: binding, human; settings: ING5, GST-tagged; arrays performed twice, n of 4
In short: (§1)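 GST-PHD reader, 0.5 μM, probed on 293-peptide histone array (single/combinatorial PTMs); optimized array protocol; signal = mean ± SD, n = 4.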

[3] = system: CHD5 (PPCC); test: Histone peptide microarray; assay type: binding, human; settings: CHD5 (PPCC), GST-tagged; arrays performed twice, n of 4
In short: as §1

[4] = system: KDM5A (1); test: Histone peptide microarray; assay type: binding, human; settings: KDM5A (1), GST-tagged; arrays performed twice, n of 4
In short: as §1

[5] = system: PHF23; test: Histone peptide microarray; assay type: binding, human; settings: PHF23, GST-tagged; arrays performed twice, n of 4
In short: as §1

[6] = system: PHF2; test: Histone peptide microarray; assay type: binding, human; settings: PHF2, GST-tagged; arrays performed twice, n of 4
In short: as §1

[7] = system: KDM5B (3); test: Histone peptide microarray; assay type: binding, human; settings: KDM5B (3), GST-tagged; arrays performed twice, n of 4
In short: as §1

[8] = system: KDM5B (1); test: Histone peptide microarray; assay type: binding, human; settings: KDM5B (1), GST-tagged; arrays performed twice, n of 4
In short: as §1

[9] = system: ING3; test: Histone peptide microarray; assay type: binding, human; settings: ING3, GST-tagged; arrays performed twice, n of 4
In short: as §1

[10] = system: MORC3 (CW); test: Histone peptide microarray; assay type: binding, human; settings: MORC3 (CW), GST-tagged; arrays performed twice, n of 4
In short: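 GST-tagged PHD finger readers were expressed, purified and applied at 0.5 μM to a microarray of 293 synthetic histone peptides carrying single or combinatorial PTMs, using an optimized protocol. Binding signals are averages with standard deviation from 4 replicates.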

[11] = system: BPTF (PB); test: Histone peptide microarray; assay type: binding, human; settings: BPTF (PB), GST-tagged; arrays performed twice, n of 4
In short: as §1

[12] = system: CHD5 (PCC); test: Histone peptide microarray; assay type: binding, human; settings: CHD5 (PCC), GST-tagged; arrays performed twice, n of 4
In short: as §1

[13] = system: AIRE (PP); test: Histone peptide microarray; assay type: binding, human; settings: AIRE (PP), GST-tagged; arrays performed twice, n of 4
In short: as §1

[14] = system: TRIM66 (PB); test: Histone peptide microarray; assay type: binding, human; settings: TRIM66 (PB), GST-tagged; arrays performed twice, n of 4
In short: as §1

[15] = system: PHRF1 (RP); test: Histone peptide microarray; assay type: binding, human; settings: PHRF1 (RP), GST-tagged; arrays performed twice, n of 4
In short: as §1

[16] = system: TAF3; test: Histone peptide microarray; assay type: binding, human; settings: TAF3, GST-tagged; arrays performed twice, n of 4
In short: as §1

[17] = system: KDM7A; test: Histone peptide microarray; assay type: binding, human; settings: KDM7A, GST-tagged; arrays performed twice, n of 4
In short: as §1

[18] = system: PHF21A; test: Histone peptide microarray; assay type: binding, human; settings: PHF21A, GST-tagged; arrays performed twice, n of 4
In short: as §1

[19] = system: ING4; test: Histone peptide microarray; assay type: binding, human; settings: ING4, GST-tagged; arrays performed twice, n of 4
In short: as §1

[20] = system: MLL5; test: Histone peptide microarray; assay type: binding, human; settings: MLL5, GST-tagged; arrays performed twice, n of 4
In short: as §1

[21] = system: PHF13; test: Histone peptide microarray; assay type: binding, human; settings: PHF13, GST-tagged; arrays performed twice, n of 4
In short: as §1

[22] = system: ING1; test: Histone peptide microarray; assay type: binding, human; settings: ING1, GST-tagged; arrays performed twice, n of 4
In short: as §1

[23] = system: DIDO1; test: Histone peptide microarray; assay type: binding, human; settings: DIDO1, GST-tagged; arrays performed twice, n of 4
In short: as §1

[24] = system: CHD4 (PPCC); test: Histone peptide microarray; assay type: binding, human; settings: CHD4 (PPCC), GST-tagged; arrays performed twice, n of 4
In short: as §1

[25] = system: ING2; test: Histone peptide microarray; assay type: binding, human; settings: ING2, GST-tagged; arrays performed twice, n of 4
In short: as §1

[26] = system: KDM5A (3); test: Histone peptide microarray; assay type: binding, human; settings: KDM5A (3), GST-tagged; arrays performed twice, n of 4
In short: as §1

[27] = system: DPF2 (PPC2W2); test: Histone peptide microarray; assay type: binding, human; settings: DPF2 (PPC2W2), GST-tagged; arrays performed twice, n of 4
In short: as §1

[28] = system: KDM4C (TTP); test: Histone peptide microarray; assay type: binding, human; settings: KDM4C (TTP), GST-tagged; arrays performed twice, n of 4
In short: as §1

[29] = system: RAG2; test: Histone peptide microarray; assay type: binding, human; settings: RAG2, GST-tagged; arrays performed twice, n of 4
In short: as §1

[30] = system: BAZ2B; test: Histone peptide microarray; assay type: binding, human; settings: BAZ2B, GST-tagged; arrays performed twice, n of 4
In short: as §1

[31] = system: SP140L; test: Histone peptide microarray; assay type: binding, human; settings: SP140L, GST-tagged; arrays performed twice, n of 4
In short: as §1

[32] = system: PHF8; test: Histone peptide microarray; assay type: binding, human; settings: PHF8, GST-tagged; arrays performed twice, n of 4
In short: as §1

Substance: Ac-H4 (1-16): histone peptide (SGRGKGGKGLGKGGAK; N-terminal acetylation; UniProt P62805 2-17, looked up, fragment)
- binding on domain microarray [1]: No detectable binding observed

Substance: H2B: biotinylated N-terminal H2B peptide (Figure S1: H2B (1-24)) [Peptide H2B]
- binding on domain microarray [1]: little to no positive interactions

Substance: H4: biotinylated N-terminal H4 peptide (Figure S1: Ac-H4 (1-16)) (SGRGKGGKGLGKGGAK; biotin, N-terminal acetyl; UniProt P62805 2-17, looked up, fragment) [Peptide H4]
- binding on domain microarray [1]: little to no positive interactions

The remaining lines, values ahead:

- binding on domain microarray [1]: No detectable binding observed
Substance: Ac-H2A (1-17): histone peptide (Ac-SGRGKQGGKARAKAKTR; UniProt P0C0S8 2-18, looked up, fragment)

- Array Heatmap value (peptide array binding signal) [2]: 0.3459
- Array Heatmap value (peptide array binding signal) [3]: 0.538
- Array Heatmap value (peptide array binding signal) [4]: 0.4279
- Array Heatmap value (peptide array binding signal) [5]: 0.5279
- Array Heatmap value (peptide array binding signal) [6]: 0.5897
- Array Heatmap value (peptide array binding signal) [7]: 0.4322
- Array Heatmap value (peptide array binding signal) [8]: 0.6488
- Array Heatmap value (peptide array binding signal) [9]: 0.5082
- Array Heatmap value (peptide array binding signal) [10]: 0.3567
- Array Heatmap value (peptide array binding signal) [11]: 0.3544
- Array Heatmap value (peptide array binding signal) [12]: 0.7878
- Array Heatmap value (peptide array binding signal) [13]: 0.3997
- Array Heatmap value (peptide array binding signal) [14]: 0.6061
- Array Heatmap value (peptide array binding signal) [15]: 0.4883
- Array Heatmap value (peptide array binding signal) [16]: 0.2522
- Array Heatmap value (peptide array binding signal) [17]: 0.3296
- Array Heatmap value (peptide array binding signal) [18]: 0.4264
- Array Heatmap value (peptide array binding signal) [19]: 0.4476
- Array Heatmap value (peptide array binding signal) [20]: 0.5446
- Array Heatmap value (peptide array binding signal) [21]: 0.6119
- Array Heatmap value (peptide array binding signal) [22]: 0.569
- Array Heatmap value (peptide array binding signal) [23]: 0.7478
- Array Heatmap value (peptide array binding signal) [24]: 0.5842
- Array Heatmap value (peptide array binding signal) [25]: 0.5931
- Array Heatmap value (peptide array binding signal) [26]: 0.493
- Array Heatmap value (peptide array binding signal) [27]: 0.6957
- Array Heatmap value (peptide array binding signal) [28]: 0.4677
- Array Heatmap value (peptide array binding signal) [29]: 0.2496
- Array Heatmap value (peptide array binding signal) [30]: 0.4426
- Array Heatmap value (peptide array binding signal) [31]: 0.3664
- Array Heatmap value (peptide array binding signal) [32]: 0.3567
Substance: Myc-Tag: 1-10 (ILKKATAYIL; Myc epitope tag; UniProt P01106 410-419, looked up, fragment)

- binding on domain microarray [1]: No detectable binding observed
- binding on domain microarray ([1]; listed as tubulin): little to no positive interactions
Substance: α-Tubulin (30-50): α-Tubulin peptide (a.a. 30–50), control (IQPDGQMPSDKTIGGGDDSFN; also: biotin (end not given here))
